In patent publication US6355648B1, “Thio-oxindole derivatives” (American Home Products Corporation, priority 1999, dated 2002):
Several values for one entry are separate records, joined by “and”; a condition that tells them apart may be missing. Identical values can stand only once.

What was measured:
T47D cells = assay: T47D cell proliferation assay (BrdU incorporation); assay type: cell-based; details: half-maximal increase in BrdU incorporation in T47D cells; individual studies
Method: 3. T47D Cell Proliferation Assay
The objective of this assay is the determination of progestational and antiprogestational potency by using a cell proliferation assay in T47D cells. A compound's effect on DNA synthesis in T47D cells is measured.
DMEM:F12 (1:1) (GIBCO, BRL) supplemented with 10% (v/v) fetal bovine serum (not heat-inactivated), 100 U/ml penicillin, […], and 2 mM GlutaMax (GIBCO, BRL).
Minimum Essential Medium (MEM) (#51200-038GIBCO, BRL) phenol red-free supplemented with 0.5% charcoal stripped fetal bovine serum, 100 U/ml penicillin, 200 mg/ml streptomycin, and 2 mM GlutaMax (GIBCO, BRL).
Stock T47 D cells are maintained in growth medium For BrdU incorporation assay, cells are plated in 96-well plates (Falcon, Becton Dickinson Labware) at 10,000 cells/well in growth medium. […]
At the end of BrdU labeling, the medium is removed and BrdU incorporation is measured using a cell proliferation ELISA kit (#RPN 250, Amersham Life Science) according to manufacturer's instructions. […] Then 25 μl of 1 M sulfuric acid is added to each well to stop color reaction and optical density is read in a plate reader at 450 nm within 5 min.
Square root-transformed data are used for analysis of variance and nonlinear dose response curve fitting for both agonist and antagonist modes. […] EC50 or IC50 values are calculated from the retransformed values. […]

[1] = biological target: T1, A-form of the human progesterone receptor (Homo sapiens, UniProt P06401); assay: hPR binding assay (competitive radioligand binding)
T1 sequence (P06401 1-769 isoform P06401-2): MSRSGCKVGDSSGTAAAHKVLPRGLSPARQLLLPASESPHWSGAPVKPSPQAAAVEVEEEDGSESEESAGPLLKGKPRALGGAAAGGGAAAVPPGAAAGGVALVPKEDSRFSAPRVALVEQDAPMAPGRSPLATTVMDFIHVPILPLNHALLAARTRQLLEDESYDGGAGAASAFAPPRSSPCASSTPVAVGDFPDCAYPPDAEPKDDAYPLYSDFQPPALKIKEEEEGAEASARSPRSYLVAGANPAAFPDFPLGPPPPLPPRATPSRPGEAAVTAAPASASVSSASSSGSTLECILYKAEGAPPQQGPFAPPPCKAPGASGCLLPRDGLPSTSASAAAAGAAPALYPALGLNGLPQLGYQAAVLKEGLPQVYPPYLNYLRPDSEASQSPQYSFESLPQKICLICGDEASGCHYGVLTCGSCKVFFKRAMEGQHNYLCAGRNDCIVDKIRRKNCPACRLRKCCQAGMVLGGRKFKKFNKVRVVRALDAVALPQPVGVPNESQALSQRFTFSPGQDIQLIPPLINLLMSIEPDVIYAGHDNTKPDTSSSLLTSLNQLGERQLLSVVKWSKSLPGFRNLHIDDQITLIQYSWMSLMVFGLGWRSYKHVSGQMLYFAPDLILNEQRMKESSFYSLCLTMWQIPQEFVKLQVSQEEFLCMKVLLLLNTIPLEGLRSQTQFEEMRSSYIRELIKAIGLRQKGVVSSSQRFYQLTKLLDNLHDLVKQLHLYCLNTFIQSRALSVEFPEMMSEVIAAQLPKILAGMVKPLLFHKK

human PR = biological target: T2, human PR (Homo sapiens, UniProt P06401); assay: PRE-luciferase assay in CV-1 cells; assay type: cell-based; details: PRE-luciferase agonist mode in CV-1 cells
T2 construct: expressed in transfected cells; host or cells: CV-1 cells, electroporated with pLEM-hPR-B plasmid
T2 sequence (P06401 1-933): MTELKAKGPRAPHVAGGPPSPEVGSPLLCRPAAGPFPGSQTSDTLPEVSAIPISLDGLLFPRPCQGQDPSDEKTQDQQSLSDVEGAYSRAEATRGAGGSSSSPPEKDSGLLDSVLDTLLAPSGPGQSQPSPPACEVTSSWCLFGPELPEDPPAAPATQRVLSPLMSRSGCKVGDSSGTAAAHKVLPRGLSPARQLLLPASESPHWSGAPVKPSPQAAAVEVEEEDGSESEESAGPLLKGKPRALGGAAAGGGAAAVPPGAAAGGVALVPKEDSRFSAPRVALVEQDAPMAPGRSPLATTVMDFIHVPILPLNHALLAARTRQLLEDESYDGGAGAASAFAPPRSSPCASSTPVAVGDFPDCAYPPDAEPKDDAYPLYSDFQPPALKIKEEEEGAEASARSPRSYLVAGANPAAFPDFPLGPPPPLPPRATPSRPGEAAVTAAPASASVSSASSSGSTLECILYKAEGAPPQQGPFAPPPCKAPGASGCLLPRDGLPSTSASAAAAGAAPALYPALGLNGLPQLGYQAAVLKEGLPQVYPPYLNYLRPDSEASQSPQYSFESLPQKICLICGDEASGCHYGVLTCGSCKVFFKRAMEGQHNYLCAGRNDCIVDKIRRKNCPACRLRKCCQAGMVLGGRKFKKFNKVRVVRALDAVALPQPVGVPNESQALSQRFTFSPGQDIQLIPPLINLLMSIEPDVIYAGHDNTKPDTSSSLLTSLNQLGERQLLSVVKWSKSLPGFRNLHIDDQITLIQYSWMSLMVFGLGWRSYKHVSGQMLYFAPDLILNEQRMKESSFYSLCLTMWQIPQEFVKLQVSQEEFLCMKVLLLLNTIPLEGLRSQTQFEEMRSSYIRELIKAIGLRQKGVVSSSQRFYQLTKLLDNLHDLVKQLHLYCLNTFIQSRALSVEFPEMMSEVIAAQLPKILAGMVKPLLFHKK
Method: 2. PRE-luciferase Assay in CV-1 Cells
The object of this assay is to determine a compound's progestational or antiprogestational potency based on its effect on PRE-luciferase reporter activity in CV-1 cells co-transfected with human PR and PRE-luciferase plasmids. The materials methods used in the assay are as follows.
a. Growth Medium: DMEM (BioWhittaker) containing 10% (v/v) fetal bovine serum (heat inactivated), 0.1 mM MEM non-essential amino acids, 100 U/ml penicillin, […] streptomycin, and 2 mM GlutaMax (GIBCO, BRL). Experimental medium: DMEM (BioWhittaker), phenol red-free, containing 10% (v/v) charcoal-stripped fetal bovine serum (heat-inactivated), 0.1 mM MEM non-essential amino acids, 100 U/ml penicillin, […] streptomycin, and 2 mM GlutaMax (GIBCO, BRL).
b. Cell Culture, Transfection, Treatment, and Luciferase Assay
Stock CV-1 cells are maintained in growth medium. Co-transfection is done using 1.2×10^7 cells, […] pLEM plasmid with hpR-B inserted at Sph1 and BamH1 sites, […] pGL3 plasmid with two PREs upstream of the luciferase sequence, and […] sonicated calf thymus DNA as carrier DNA in […]. Electroporation is carried out at 260 V and […] in a Biorad Gene Pulser II. After electroporation, cells are resuspended in growth medium and plated in 96-well plate at 40,000 cells/well in 200 μl. Following overnight incubation, the medium is changed to experimental medium. Cells are then treated with reference or test compounds in experimental medium. […] Twenty-four hr. after treatment, the medium is discarded, cells are washed three times with D-PBS (GIBCO, BRL). Fifty μl of cell lysis buffer (Promega, Madison, Wis.) is added to each well and the plates are shaken for 15 min in a Titer Plate Shaker (Lab Line Instrument, Inc.). Luciferase activity is measured using luciferase reagents from Promega.
Each treatment consists of at least 4 replicates. Log transformed data are used for analysis of variance and nonlinear dose response curve fitting for both agonist and antagonist modes. Huber weighting is used to downweight the effects of outliers. EC50 or IC50 values are calculated from the retransformed values.

ovulation = assay: Rat ovulation inhibition model; assay type: in vivo
[2] = system: rat uterine decidualization; assay: Rat decidualization assay; assay type: in vivo; details: for EC50: half-maximal increase in decidual response (uterine wet weight), ovariectomized rats, s.c., individual studies
Method: 1. Rat Decidualization Assay:
The animals are treated once daily for seven days.
Uteri are removed and trimmed of fat. Decidualized (D-hom) and control (C-horn) uterine horns are weighed separately.
Body weight: Mean total animal body weight (default-kg)
Decidual response: [(D-C)/C]×100%

melting point	EC50 (human PR)	SMILES	EC50 [2]	also measured
168 to 170 °C		CC1(Cc2ccccc2)C(=S)Nc2ccc(-c3cccc(Cl)c3)cc21 (stereo not shown) [Example 17, 3-Benzyl-5-(3-chlorophenyl)-3-methyl-1,3-dihydro-2H-indole-2-thione]		
149 to 150 °C		COc1cccc(-c2ccc3c(c2)C(C)(C)C(=S)N3)c1 [Example 19, 5-(3-Methoxyphenyl)-3,3-dimethyl-1,3-dihydro-2H-indole2-thione]		
		C[C@H](O)C(=O)[C@@]1(C)CC[C@H]2[C@@H]3CCC4=CC(=O)CCC4=C3CC[C@@]21C [Trimegestone]		EC50 (T47D cells): 0.017 nM and 0.014 nM and 0.019 nM
236 to 250 °C	0.1 nM	N#Cc1cc(F)cc(-c2ccc3c(c2)C2(CCCCC2)C(=S)N3)c1 [Example 4, 3-(1,2-Dihydro-2-thioxospiro[cyclohexane-1,3-[3H]indol]-5-yl)-5-fluorobenzonitrile]		Ki [1]: 0.06 nM; Ovulation inhibition IC100 (ovulation): 0.1 mg/kg
		CC(=O)[C@H]1CC[C@H]2[C@@H]3CCC4=CC(=O)CC[C@]4(C)[C@H]3CC[C@]12C [Progesterone]	5.50 mg/kg, s.c. and 6.21 mg/kg, s.c.	
		C#C[C@]1(O)CC[C@H]2[C@@H]3CCC4=CC(=O)CC[C@@H]4[C@H]3C(=C)C[C@@]21CC [3-Ketodesogestrel]	0.10 mg/kg, s.c. and 0.06 mg/kg, s.c. and 0.11 mg/kg, s.c.	
		C#C[C@]1(O)CC[C@H]2[C@@H]3CCC4=CC(=O)CC[C@@H]4[C@H]3CC[C@@]21CC [Levonorgestrel]	0.08 mg/kg, s.c. and 0.12 mg/kg, s.c. and 0.09 mg/kg, s.c.	
158 to 160 °C		CC1(C)C(=S)Nc2ccc(-c3cccc(Cl)c3)cc21 [Example 16, 5-(3-Chlorophenyl)-3,3-dimethyl-1,3-dihydro-2H-indole-2-thione]		
244 to 249 °C	0.3 nM	Cc1cc(C(N)=S)sc1-c1ccc2c(c1)C1(CCCCC1)C(=S)N2 [Example 5, 4-Methyl-5-(1,2-dihydro-2-thioxospiro[cyclohexane-1,3-[3H]-indol]-5-yl)-2-thiophene Thioamide]		
223 to 227 °C	0.8 nM	S=C1Nc2ccc(-c3cccc(Cl)c3)cc2C12CCCCC2 [Example 1, 5′-(3-Chlorophenyl)spiro[cyclohexane-1,3′-[3H]indole]-2′(1′H)-thione]		Ki [1]: 0.2 nM
230 to 232 °C	0.2 nM	N#Cc1cc(-c2ccc3c(c2)C2(CCCCC2)C(=S)N3)cs1 [Example 3, 4-(1′, 2′-Dihydro-2′-thioxospiro[cyclohexane-1,3′-[3H]indol]-5′-yl)-2-thiophenecarbonitrile]		Ki [1]: 0.1 nM
		CC#C[C@]1(O)CC[C@H]2[C@@H]3CCC4=CC(=O)CCC4=C3[C@@H](c3ccc(N(C)C)cc3)C[C@@]21C [RU486]		IC50 ([2]; half-maximal decrease in EC50 progesterone induced decidual response, rats, p.o.): 0.21 mg/kg, p.o. and 0.14 mg/kg, p.o.
		CC(=O)O[C@]1(C(C)=O)CC[C@H]2[C@@H]3C[C@H](C)C4=CC(=O)CC[C@]4(C)[C@H]3CC[C@@]21C [MPA, medroxyprogesterone acetate]	0.42 mg/kg, s.c. and 0.39 mg/kg, s.c.	EC50 (T47D cells): 0.017 nM and 0.019 nM
